Where two headings read alike, the source gives them in different places.
Experiments:
b-Raf (V600E) [1] = target: T1, b-Raf (V600E) (Homo sapiens (Human), UniProt P15056, V600E); assay: biochemical
b-Raf (V600E) [2] = target: T1, b-Raf (V600E); conditions: read-out: b-Raf IC-50, AlphaScreen
[3] = 60 min pre-incubation, reaction 3 hours at room temperature
[4] = 60 min pre-incubation, 3 hours reaction

T1 sequence (P15056 whole entry V600E): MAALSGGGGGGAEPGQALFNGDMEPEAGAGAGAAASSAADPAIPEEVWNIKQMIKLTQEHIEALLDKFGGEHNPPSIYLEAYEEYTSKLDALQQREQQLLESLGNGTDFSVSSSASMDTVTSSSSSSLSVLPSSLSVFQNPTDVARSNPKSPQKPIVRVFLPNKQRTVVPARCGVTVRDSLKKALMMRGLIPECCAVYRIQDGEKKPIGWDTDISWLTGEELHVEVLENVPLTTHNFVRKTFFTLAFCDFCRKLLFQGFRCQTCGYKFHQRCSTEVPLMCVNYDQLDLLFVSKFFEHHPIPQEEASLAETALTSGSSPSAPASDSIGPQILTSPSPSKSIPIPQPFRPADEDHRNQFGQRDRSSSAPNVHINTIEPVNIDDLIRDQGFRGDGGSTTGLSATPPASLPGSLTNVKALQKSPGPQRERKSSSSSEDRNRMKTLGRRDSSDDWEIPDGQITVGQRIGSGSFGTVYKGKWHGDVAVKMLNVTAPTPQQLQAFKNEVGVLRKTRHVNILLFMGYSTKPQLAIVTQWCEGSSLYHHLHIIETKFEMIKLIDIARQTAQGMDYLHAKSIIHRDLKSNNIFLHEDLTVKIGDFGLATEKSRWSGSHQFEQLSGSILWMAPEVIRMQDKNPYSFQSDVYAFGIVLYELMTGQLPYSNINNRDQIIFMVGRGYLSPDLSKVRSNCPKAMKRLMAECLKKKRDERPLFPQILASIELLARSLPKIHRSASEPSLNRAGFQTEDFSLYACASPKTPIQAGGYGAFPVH

Structure (SMILES) | IC50 (b-Raf (V600E) [1]) | IC50 (b-Raf (V600E) [2]; [4]) | further results
CCOc1ncc(-c2cc(C(=O)Nc3cccc(C(C)(C)O)c3)ccc2C)cc1N1CCOCC1 [Example 236, 3-(6-ethoxy-5-morpholinopyridin-3-yl)-N-(3-(2-hydroxypropan-2-yl)phenyl)-4-methylbenzamide] | 1.6 nM |  | 
Cc1ccc(NC(=O)c2ccc(CO)c(C(F)(F)F)c2)cc1-c1cc(N2CCOCC2)c(=O)n(C)c1 [Example 462, 4-(hydroxymethyl)-N-(4-methyl-3-(1-methyl-5-morpholino-6-oxo-1,6-dihydropyridin-3-yl)phenyl)-3-(trifluoromethyl)benzamide] | 3.7 nM |  | 
CCn1cc(C(=O)Nc2ccc(C)c(-c3cc4[nH]cnc4c(N4CCOCC4)n3)c2)c(C)n1 [Example 814, 1-ethyl-3-methyl-N-(4-methyl-3-(4-morpholino-1H-imidazo[4,5-c]pyridin-6-yl)phenyl)-1H-pyrazole-4-carboxamide] | 32.1 nM |  | 
Cc1ccc(C(=O)Nc2ccc(CN)c(C(F)(F)F)c2)cc1-c1cc(N2CCOCC2)c(=O)n(C)c1 [Example 467, N-(4-(aminomethyl)-3-(trifluoromethyl)phenyl)-4-methyl-3-(1-methyl-5-morpholino-6-oxo-1,6-dihydropyridin-3-yl)benzamide] | 12.1 nM |  | 
Cc1ccc(NC(=O)c2cc(CO)cc(C(F)(F)F)c2)cc1-c1cc(N2CCOCC2)c(=O)n(C)c1 [Example 469, 3-(hydroxymethyl)-N-(4-methyl-3-(1-methyl-5-morpholino-6-oxo-1,6-dihydropyridin-3-yl)phenyl)-5-(trifluoromethyl)benzamide] | 3.1 nM |  | 
Cc1ncc(NC(=O)c2cccc(C(F)F)c2)cc1-c1cc(NCCO)nc(N2CCOCC2)c1 [Example 1038, 3-(difluoromethyl)-N-(2′-((2-hydroxyethyl)amino)-2-methyl-6′-morpholino-[3,4′-bipyridin]-5-yl)benzamide] |  |  | IC50 (b-Raf (V600E) [2]; [3]): 2.86 nM
Cc1ncc(NC(=O)c2cccc(C(F)(F)F)c2)cc1-c1cnc(O[C@H]2CC[C@@H](O)CC2)c(N2CCOCC2)c1 [Example 317, N-(6′-(((1s,4s)-4-hydroxycyclohexyl)oxy)-2-methyl-5′-morpholino-[3,3′-bipyridin]-5-yl)-3-(trifluoromethyl)benzamide] |  |  | IC50 (b-Raf (V600E) [2]; Table 2, 3 hours reaction): 1.6 nM
Cc1ccc(NC(=O)c2ccnc(C(C)(C)C#N)c2)cc1-c1nc2c(c(N3CCOCC3)n1)S(=O)(=O)CC2 [Example 855, 2-(2-cyanopropan-2-yl)-N-(4-methyl-3-(4-morpholino-5,5-dioxido-6,7-dihydrothieno[3,2-d]pyrimidin-2-yl)phenyl)isonicotinamide] |  |  | IC50 (b-Raf (V600E) [2]; [3]): 2.3 nM
Cc1ccc(NC(=O)c2cccc(-c3nnco3)c2)cc1-c1cc(N2CCOCC2)c(=O)n(C)n1 [Example 639, N-(4-methyl-3-(1-methyl-5-morpholino-6-oxo-1,6-dihydropyridazin-3-yl)phenyl)-3-(1,3,4-oxadiazol-2-yl)benzamide] |  | 7.3 nM | 
Cc1ncc(NC(=O)c2cccc(C(C)(F)F)c2)cc1-c1cc(N2CCOCC2)c(=O)n(C)c1 [Example 393, 3-(1,1-difluoroethyl)-N-(1′,2-dimethyl-5′-morpholino-6′-oxo-1′,6′-dihydro-[3,3′-bipyridin]-5-yl)benzamide] |  |  | IC50 (b-Raf (V600E) [2]; Table 2, 3 hours reaction): 4.6 nM
CCOc1ncc(-c2cc(NC(=O)c3cc(CN(C)C)cc(C(F)(F)F)c3)cnc2C)cc1N1CCOCC1 [Example 258, 3-((dimethylamino)methyl)-N-(6′-ethoxy-2-methyl-5′-morpholino-[3,3′-bipyridin]-5-yl)-5-(trifluoromethyl)benzamide] |  |  | IC50 (b-Raf (V600E) [2]; Table 2, 3 hours reaction): 8.3 nM
CCNc1nc(-c2cc(NC(=O)c3ccnc(C(C)C)c3)ccc2C)cc(N2CCOCC2)n1 [Example 700, N-(3-(2-(ethylamino)-6-morpholinopyrimidin-4-yl)-4-methylphenyl)-2-isopropylisonicotinamide] |  | 1.2 nM | 
Cc1ccc(NC(=O)c2ccnc(C(C)(C)C#N)c2)cc1-c1cc(N2CCOCC2)ncn1 [Example 2, 2-(2-cyanopropan-2-yl)-N-(4-methyl-3-(6-morpholinopyrimidin-4-yl)phenyl)isonicotinamide] |  |  | IC50 (b-Raf (V600E) [2]; Table 2, 3 hours reaction): 4.8 nM
CCNc1nc(-c2cc(NC(=O)c3cc(C(F)(F)F)c(=O)n(CC)c3)ccc2C)cc(N2CCOCC2)n1 [Example 703, 1-ethyl-N-(3-(2-(ethylamino)-6-morpholinopyrimidin-4-yl)-4-methylphenyl)-6-oxo-5-(trifluoromethyl)-1,6-dihydropyridine-3-carboxamide] |  | 1.3 nM | 
Cc1ncc(NC(=O)c2ccnc(C(C)(C)C#N)c2)cc1-c1cc(N2CCOCC2)nc(NC(C)(C)CO)n1 [Example 750, 2-(2-cyanopropan-2-yl)-N-(5-(2-((1-hydroxy-2-methylpropan-2-yl)amino)-6-morpholinopyrimidin-4-yl)-6-methylpyridin-3-yl)isonicotinamide] |  | 22.4 nM | 
Cc1ncc(NC(=O)c2cccc(C(F)(F)F)c2)cc1-c1cnc(N(C)C)c(N2CCOCC2)c1 [Example 307, N-(6′-(dimethylamino)-2-methyl-5′-morpholino-[3,3′-bipyridin]-5-yl)-3-(trifluoromethyl)benzamide] |  |  | IC50 (b-Raf (V600E) [2]; Table 2, 3 hours reaction): 0.6 nM
Cc1ncc(NC(=O)c2cccc(C(F)(F)F)c2)cc1-c1cc(N2CCOCC2)nc(N2CCNCC2)n1 [Example 775, N-(6-methyl-5-(6-morpholino-2-(piperazin-1-yl)pyrimidin-4-yl)pyridin-3-yl)-3-(trifluoromethyl)benzamide] |  | 20 nM | 
Cc1ncc(NC(=O)c2ccnc(C(C)C)c2)cc1-c1ccnc(N2CCOCC2)c1 [Example 1136, 2-isopropyl-N-(2-methyl-2′-morpholino-[3,4′-bipyridin]-5-yl)isonicotinamide] |  |  | IC50 (b-Raf (V600E) [2]; [3]): 5.03 nM
Cc1ccc(C(=O)Nc2cccc(C(C)C)c2)cc1-c1cc(N2CCOCC2)c(=O)n(C)c1 [Example 436, N-(3-isopropylphenyl)-4-methyl-3-(1-methyl-5-morpholino-6-oxo-1,6-dihydropyridin-3-yl)benzamide] |  | 3.8 nM | 
Cc1ccc(NC(=O)c2ccnc(C(C)(C)C#N)c2)cc1-c1cc(N2CCOCC2)nc(N2C(=O)OC[C@@H]2C)n1 [Example 782, (S)-2-(2-cyanopropan-2-yl)-N-(4-methyl-3-(2-(4-methyl-2-oxooxazolidin-3-yl)-6-morpholinopyrimidin-4-yl)phenyl)isonicotinamide] |  | 22.3 nM | 
Cc1ncc(NC(=O)c2ccnc(C(C)C)c2)cc1-c1cc(N2CCOCC2)nc(N2CC(O)C2)c1 [Example 1081, N-(2′-(3-hydroxyazetidin-1-yl)-2-methyl-6′-morpholino-[3,4′-bipyridin]-5-yl)-2-isopropylisonicotinamide] |  |  | IC50 (b-Raf (V600E) [2]; [3]): 6.43 nM
Cc1ccc(NC(=O)c2cnnc(C(F)(F)F)c2)cc1-c1cnc(OC2CCOCC2)c(N2CCOCC2)c1 [Example 275, N-(4-methyl-3-(5-morpholino-6-((tetrahydro-2H-pyran-4-yl)oxy)pyridin-3-yl)phenyl)-6-(trifluoromethyl)pyridazine-4-carboxamide] |  |  | IC50 (b-Raf (V600E) [2]; Table 2, 3 hours reaction): 0.5 nM
Cc1ccc(NC(=O)c2ccc(C(O)CO)c(C(F)(F)F)c2)cc1-c1cc(N2CCOCC2)c(=O)n(C)c1 (centres unmarked) [Example 460, 4-(1,2-dihydroxyethyl)-N-(4-methyl-3-(1-methyl-5-morpholino-6-oxo-1,6-dihydropyridin-3-yl)phenyl)-3-(trifluoromethyl)benzamide] |  | 15.9 nM | 
Cc1ncc(NC(=O)c2ccnc(C(C)(C)C#N)c2)cc1-c1cnc(OC2CCOCC2)c(N2CCOCC2)c1 [Example 272, 2-(2-cyanopropan-2-yl)-N-(2-methyl-5′-morpholino-6′-((tetrahydro-2H-pyran-4-yl)oxy)-[3,3′-bipyridin]-5-yl)isonicotinamide] |  |  | IC50 (b-Raf (V600E) [2]; Table 2, 3 hours reaction): 6.3 nM
Cc1ncc(NC(=O)c2cccc(C(F)(F)F)c2)cc1-c1cnc(O[C@@H]2CCOC2)c(N2CCOCC2)c1 [Example 311, (R)—N-(2-methyl-5′-morpholino-6′-((tetrahydrofuran-3-yl)oxy)-[3,3′-bipyridin]-5-yl)-3-(trifluoromethyl)benzamide] |  |  | IC50 (b-Raf (V600E) [2]; Table 2, 3 hours reaction): 2.4 nM
CCOc1nnc(-c2cc(NC(=O)c3ccc(CN(C)C)c(C(F)(F)F)c3)ccc2C)cc1N1CCOCC1 [Example 576, 4-((dimethylamino)methyl)-N-(3-(6-ethoxy-5-morpholinopyridazin-3-yl)-4-methylphenyl)-3-(trifluoromethyl)benzamide] |  | 3.5 nM | 

The next lines start with results.

IC50 (b-Raf (V600E) [1]) | IC50 (b-Raf (V600E) [2]; [4]) | Structure (SMILES) | further results
2.6 nM |  | Cc1ncc(NC(=O)c2cccc(C(F)(F)F)c2)cc1-c1cnc(O[C@H](C)CO)c(N2CCOCC2)c1 [Example 1021, (R)—N-(6′-((1-hydroxypropan-2-yl)oxy)-2-methyl-5′-morpholino-[3,3′-bipyridin]-5-yl)-3-(trifluoromethyl)benzamide] | 
17.4 nM |  | Cc1ccc(NC(=O)c2cn(C(C)C)nc2C)cc1-c1cc2[nH]cnc2c(N2CCOCC2)n1 [Example 816, 1-isopropyl-3-methyl-N-(4-methyl-3-(4-morpholino-1H-imidazo[4,5-c]pyridin-6-yl)phenyl)-1H-pyrazole-4-carboxamide] | 
1.4 nM |  | Cc1ccc(NC(=O)c2cc(C3CC3)on2)cc1-c1cc2[nH]cnc2c(N2CCOCC2)n1 [Example 820, 5-cyclopropyl-N-(4-methyl-3-(4-morpholino-1H-imidazo[4,5-c]pyridin-6-yl)phenyl)isoxazole-3-carboxamide] | 
9.4 nM |  | Cc1ccc(NC(=O)c2ccnc(C(C)(C)O)c2)cc1-c1cc2[nH]cnc2c(N2CCOCC2)n1 [Example 823, 2(2-hydroxypropan-2-yl)-N-(4-methyl-3-(4-morpholino-1H-imidazo[4,5-c]pyridin-6-yl)phenyl)isonicotinamide] | 
0.62 nM |  | Cc1ccc(NC(=O)c2ccnc(C(C)(F)F)c2)cc1-c1ccnc(N2CCOCC2)c1 [Example 1137, 2-(1,1-difluoroethyl)-N-(4-methyl-3-(2-morpholinopyridin-4-yl)phenyl)isonicotinamide] | 
 | 2 nM | CCC(F)(F)c1cc(C(=O)Nc2cnc(C)c(-c3cc(N4CCOCC4)n4nccc4n3)c2)ccn1 [Example 800, 2-(1,1-difluoropropyl)-N-(6-methyl-5-(7-morpholinopyrazolo[1,5-a]pyrimidin-5-yl)pyridin-3-yl)isonicotinamide] | 

From US9694016B2 (Novartis AG, priority 2013, dated 2017)
